Columns and labels:
[1] = tested on: phosphorylation levels of 43 kinases in PC-3 cells; experiment: Phospho-kinase antibody array on lysates of 3D cultures; type: cell-based, human; settings: for p70 S6 kinase (T389), p53 (S392) and PYK2 (Y402) phosphorylation: 6-d exposure; for phosphorylation levels of STAT3 (Y727), c-Jun (S63), eNOS (S1177) and PLC-γ1 (Y783): both short (4 h, 1 μM) and long-term (6 d, 300 nM) exposures
Procedure: In order to elucidate possible mechanism of action for our betulin derivatives, we used a phospho-kinase array that quantitatively detects the phosphorylation levels of 43 kinases in cell lysates (Fig 7). Lysates were extracted from 3D cell cultures of PC-3 cells, and exposed to betulin-derived compounds for short (4 hours) or long-term (6 days) periods. For these studies, we selected the two representative derivatives 5 and 20 as the most specific, least cytotoxic inhibitors of cell invasion. […] The kinase arrays were also quantified by image densitometry (Fig 7A). […] The reduction of AKT activity by both compounds was validated by western blotting, using an independent, p-AKT specific antibody (Fig 7B). The short treatments caused only modest changes with a maximum reduction of protein phosphorylation by 2-fold (20: GSK-3α/β S21/S9 and STAT3 Y705). Phosphorylation levels of only three kinases were altered more than 2-fold in the long-term exposures, namely AKT (T308), p53 (S46) and eNOS (S1177), caused by nanomolar concentrations of compound 5. Compound 20 had much less dramatic effects on kinase phosphorylation when compared to compound 5, despite its generally more pronounced anti-invasive effects.
Fig 7 Mechanisms of action. PC-3 spheroids were exposed to two representative betulin derivatives, 5 and 20, for 4 h (at 1 μM) and 6 days (at 0.3 μM). A) Computational quantification of signal intensities from the kinase arrays, aligned by fold changes observed (left to right). B) Western blot of total and phospho-Akt (S473) shown for both short and long-term exposure to 20 and 5.
In order to generate sufficient protein material for antibody arrays, we resorted to 6-well Millicell hanging cell culture inserts (Merck Millipore, Billerica, MA, USA). Membranes were pre-coated with 4 mg/mL GFR Matrigel (Corning Inc., New York, NY, USA) and incubated at 37°C for 1 h to prevent attachment to the membrane. GFR Matrigel (2 mg/mL) was prepared and 100,000 cells were added in. The Matrigel-cell suspension was transferred into the coated wells and incubated overnight at 37°C. Fresh medium was added the following day under the insert. After four days in culture fresh media with compounds 20 and 5 at 0.3 μM concentration compounds were added for six days long-term exposure. On day 10, the same compounds were added in fresh medium at 1 μM concentration for the 4h short-term exposure. DMSO was used as a negative control in both exposures. Cells were harvested by first washing the inserts with ice cold PBS, then incubating the isolated ECM slabs in ice cold 5 mM ethylenediaminetetraacetic acid (EDTA) in PBS on ice on a table top rocker for 45 min to dissolve the ECM, and finally by washing the cell pellets once with PBS before lysing them in Lysis Buffer 6 (R&D Systems, Minneapolis, MN, USA). The antibody arrays used were from the Human Phospho-Kinase Array Kit (R&D Systems, Minneapolis, MN, USA). The samples were assayed according to manufacturer’s instructions. Exposed radiograms were scanned with a tabletop scanner and spot intensities quantified using Array-Pro Analyzer (v4.5.1.73) software.

[2] = in vitro; type: cell-based; settings: human
Procedure: To rule out that cytotoxic and antimitotic effects were misinterpreted as anti-invasive, we tested compounds 4, 5, 6, 19 and 20 for inhibition of proliferation and induction of cell death in a 2D monolayer culture (summarized in Fig 6). […] LNCaP cells were more sensitive, with growth inhibition/cytotoxicity starting at 3 μM. The effects on non-transformed, apoptosis-sensitive Ep156T cells were strongest. Here, cytotoxic effects were typically observed already at 0.3–1 μM. […] We further calculated EC50 values for proliferation, apoptosis and cell death for each compound, using the PerkinElmer Harmony software (method validation shown in S7 Fig). The only assay that produced results consistent with those of the betulin derivatives tested in the 2D cell culture model was the proliferation assay (Table 1).
Fig 6 Cytotoxicity tests performed in 2D monolayer culture. A) Cell proliferation/cell number, B) programmed cell death (apoptosis), and C) number of dead cells were assessed by conventional assays, combined with high-content microscopy (Operetta). […] Proliferation was measured as the total number of nuclei (= cells), apoptosis as ratio of caspase-3 positive versus all cells, and cell death as ethidium homodimer-2 positive nuclei versus all cells.
Cells were transferred into CellCarrier 384-well plates (PerkinElmer, Waltham, MA, USA) at a density of 1250 cells/well, using Multidrop dispenser (ThermoFisher Scientific, Waltham, MA, USA). After overnight incubation at 37°C experimental, compounds were added with an ATS Acoustic Transfer System (EDC Biosystems, Fremont, CA, USA). For Ep156T cells the protocol was done in reverse with compounds dispensed before seeding of cells. Fluorescent markers were dispensed in culture medium using ATS system after 72-h compound exposure. Nuclei were stained with cell-permeable Hoechst 33342 (Molecular Probes, Eugene, OR, USA), dead cells with ethidium homodimer-2 (Invitrogen, Carlsbad, CA, USA) and apoptotic cells with NucView caspase-3 detection reagent (Essen Bioscience, Ann Arbor, MI, USA). Cells were imaged with Operetta high-content imager (PerkinElmer, Waltham, MA, USA). Proliferation was measured from the number of nuclei (cells), cell death and apoptosis from positive cells/total cells ratio using Harmony image analysis software (PerkinElmer, Waltham, MA, USA). EC50 values were also assessed with the Harmony software.

C=C(C)[C@@H]1CC[C@]2(C(=O)O)CC[C@]3(C)C(CCC4[C@@]5(C)Cc6cnoc6C(C)(C)C5CC[C@]43C)C12 (stereo partly drawn) [Compound 5]
AMPKα1 (T174) phosphorylation [1]: increased
phosphorylation of p53 sites S46 and S392 [1]: consistently decreased
p70 S6 kinase (T389), p53 (S392) and PYK2 (Y402) phosphorylation ([1]; 300 nM): reduced
phosphorylation levels of STAT3 (Y727), c-Jun (S63), eNOS (S1177) and PLC-γ1 (Y783) [1]: clearly decreased
alteration of phosphorylation levels of AKT (T308), p53 (S46) and eNOS (S1177) ([1]; long-term exposures, 6 d, nanomolar concentrations): more than 2 fold
Akt (T308) phosphorylation ([1]; long-term treatment, 6 d, 300 nM): abolished almost entirely
p53 (S15) phosphorylation ([1]; short-term exposure, 4 h, 1 μM): reduced
specific changes in kinase activity ([1]; short-term exposure, 4 h, 1 μM): did not cause any specific changes in kinase activity
EC50 at 72 h [2]: 10 µM

C=C(C)[C@@H]1CC[C@]2(C(=O)O)CC[C@]3(C)C(CCC4[C@@]5(C)Cc6ncccc6C(C)(C)C5CC[C@]43C)C12 (stereo partly drawn) [Compound 20]
AMPKα1 (T174) phosphorylation [1]: increased
phosphorylation of mTOR (S2448), Fyn (Y420) and Src (Y419) [1]: increased
p70 S6 kinase (T389), p53 (S392) and PYK2 (Y402) phosphorylation ([1]; 300 nM): reduced
Akt (S473) phosphorylation ([1]; 4 h at 1 μM vs 6 d at 300 nM): only inhibited by the 6-d exposure
phosphorylation levels of STAT3 (Y727), c-Jun (S63), eNOS (S1177) and PLC-γ1 (Y783) [1]: clearly decreased
phosphorylation of Hck (Y411), pan-JNK, GSK-3α/β (S21/S9), STAT3 (Y705) and WNK1 (T60) sites ([1]; compound-specific effects): differential phosphorylation
maximum reduction of protein phosphorylation (GSK-3α/β S21/S9 and STAT3 Y705) ([1]; short treatments, 4 h, 1 μM): 2 fold
p53 (S15) phosphorylation ([1]; short-term exposure, 4 h, 1 μM): reduced
EC50 at 72 h [2]: 67 µM
